Reference: publication PMC11672400, “Synthesis, Spectroscopic Characterization, Structural Analysis, and Evaluation of Anti-Tumor, Antimicrobial, and Antibiofilm Activities of Halogenoaminopyrazoles Derivatives” (Antibiotics, 2024)
≈ marks a conversion by molar mass, not a printed value. Where two headings read alike, the source gives them in different places.

What was measured:
[1] = system: HEp-2 epithelial tumor cells; assay: MTT cell viability / anti-tumor activity; details: Homo sapiens; for viability at 3.1 µg/mL / viability at 6.25 µg/mL / viability at 12.5 µg/mL / viability at 25 µg/mL / viability at 50 µg/mL: read-out: Cell viability on Hep2 cells (%); for IC50: read-out: IC50 µg/mL on HEp-2 Cells 48 h, HEp-2 epithelial tumor cells, MTT, 48 h
[2] = system: Enterococcus faecalis ATCC29212; assay: MIC by serial microdilution in liquid medium; format: cell-based; details: Enterococcus faecalis, ATCC29212; 24 h, 37 °C; read-out: Minimum inhibitory concentration, Enterococcus faecalis ATCC29212
Method in brief: (§1)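 Twofold serial dilutions from a DMSO stock (10 mg/mL) in Tryptone Soy Broth, inoculated with 10 µL of a 10^6 CFU/mL suspension, incubated 24 h at 37 °C. Growth judged visually and by OD 620 nm; MIC (µg/mL) is the lowest concentration without growth, run in triplicate.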

[3] = system: Escherichia coli ATCC25922; assay: MIC by serial microdilution in liquid medium; format: cell-based; details: Escherichia coli, ATCC25922; 24 h, 37 °C; read-out: Minimum inhibitory concentration, Escherichia coli ATCC25922
Method in brief: as §1

[4] = system: Staphylococcus aureus ATCC25923; assay: MIC by serial microdilution in liquid medium; format: cell-based; details: 24 h, 37 °C; for MIC: Staphylococcus aureus, ATCC25923, read-out: Minimum inhibitory concentration, Staphylococcus aureus ATCC25923
Method in brief: as §1

[5] = system: Pseudomonas aeruginosa ATCC27853; assay: MIC by serial microdilution in liquid medium; format: cell-based; details: Pseudomonas aeruginosa, ATCC27853; 24 h, 37 °C; read-out: Minimum inhibitory concentration, Pseudomonas aeruginosa ATCC27853
Method in brief: as §1

[6] = system: NCTC (clone 929) mouse fibroblast cells; assay: MTT cell viability / cytotoxicity on normal fibroblasts; format: cell-based; details: for IC50: Mus musculus, NCTC clone 929, NCTC normal fibroblasts, MTT, 48 h
Excerpt: (§2) Merck chemicals were utilized.
(§3) Untreated cells were used as control, considered 100% viable cells.

[7] = as above; format: cell-based, mouse; details: mouse
Excerpt: as §2, §3

[8] = system: Enterococcus faecalis ATCC29212; assay: Antibiofilm assay (crystal violet), MBIC; format: cell-based; details: Enterococcus faecalis, ATCC29212, 24 h, 37 °C, read-out: Minimum biofilm inhibition concentration (MBIC), Enterococcus faecalis ATCC29212
Method in brief: (§4)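 Biofilms grown in nutrient broth with test substances for 24 h at 37 °C. After rinsing with sterile physiological water, attached cells were fixed 5 min with methanol, then crystal violet stained.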

[9] = system: Escherichia coli ATCC25922; assay: Antibiofilm assay (crystal violet), MBIC; format: cell-based; details: Escherichia coli, ATCC25922, 24 h, 37 °C, read-out: Minimum biofilm inhibition concentration (MBIC), Escherichia coli ATCC25922
Method in brief: as §4

[10] = system: Staphylococcus aureus ATCC25923; assay: Antibiofilm assay (crystal violet), MBIC; format: cell-based; details: 24 h, 37 °C; for minimal effective concentration: Staphylococcus aureus, ATCC25923, read-out: Minimum biofilm inhibition concentration (MBIC), Staphylococcus aureus ATCC25923
Method in brief: as §4

[11] = system: Pseudomonas aeruginosa ATCC27853; assay: Antibiofilm assay (crystal violet), MBIC; format: cell-based; details: Pseudomonas aeruginosa, ATCC27853, 24 h, 37 °C, read-out: Minimum biofilm inhibition concentration (MBIC), Pseudomonas aeruginosa ATCC27853
Method in brief: as §4

[12] = system: Enterococcus faecalis ATCC29212; assay: Qualitative evaluation of antimicrobial activity (inhibition zone, spot on agar); format: cell-based; set-up: key: (+) inhibited bacterial growth; (-) did not inhibit bacterial growth; details: 0.06 g/2 mL DMSO, 5 µL spot
Method: (§5) For testing the antimicrobial/antibiofilm activity, the concentration of the studied compounds was identical to 0.06 g/2 mL DMSO. 0.5 Standard McFarland suspension was used, which was inoculated onto Mueller Hinton agar plates, (Remel, Lenexa, KS, USA), 5 µL of each compound was spotted and incubated overnight at 37 °C. Antimicrobial activity was observed as zones of inhibition formed around the spot.

[13] = system: Escherichia coli ATCC25922; assay: as above; format: cell-based; set-up: key: (+) inhibited bacterial growth; (-) did not inhibit bacterial growth; details: 0.06 g/2 mL DMSO, 5 µL spot
Method: as §5

[14] = system: Staphylococcus aureus ATCC25923; assay: as above; format: cell-based; set-up: key: (+) inhibited bacterial growth; (-) did not inhibit bacterial growth; details: 0.06 g/2 mL DMSO, 5 µL spot
Method: as §5

[15] = system: Pseudomonas aeruginosa ATCC27853; assay: as above; format: cell-based; set-up: key: (+) inhibited bacterial growth; (-) did not inhibit bacterial growth; details: 0.06 g/2 mL DMSO, 5 µL spot
Method: as §5

[16] = NCTC clone 929 (L929) mouse fibroblast cells
[17] = NCTC clone 929 (L929) mouse fibroblast cells, 48h
[18] = read-out: Cell viability on NCTC cells (%)
[19] = 48h, read-out: Cell viability on NCTC cells (%)

Cc1nn(CNc2ccc(F)cc2)c(C)c1[N+](=O)[O-] [4a, N-[(3,5-dimetyl-4-nitro-1H-pyrazol-1-yl)-methyl]-4-fluoroaniline]
viability at 3.1 µg/mL ([1]; HEp-2, 24 h): 99.1 ± 3.42% | viability at 6.25 µg/mL ([1]; HEp-2, 24 h): 94.4 ± 1.19% | viability at 12.5 µg/mL ([1]; HEp-2, 24 h): 93.38 ± 0.92% | viability at 25 µg/mL ([1]; HEp-2, 24 h): 91.3 ± 3.73% | viability at 50 µg/mL ([1]; HEp-2, 24 h): 73.2 ± 2.71% | viability at 3.1 µg/mL ([1]; HEp-2, 48 h): 93.05 ± 0.78% | viability at 6.25 µg/mL ([1]; HEp-2, 48 h): 89 ± 1.5% | viability at 12.5 µg/mL ([1]; HEp-2, 48 h): 83.8 ± 2.3% | viability at 25 µg/mL ([1]; HEp-2, 48 h): 72.3 ± 1.99% | viability at 50 µg/mL ([1]; HEp-2, 48 h): 36.4 ± 1.45% | IC50 ([1]; HEp-2, 48 h): 40.2 ± 1.26 µg/mL (≈ 152 µM) | MIC [2]: 930 ± 0.25 µg/mL (≈ 3520 µM) | MIC [3]: 930 ± 0.14 µg/mL (≈ 3520 µM) | Minimum inhibitory concentration, Staphylococcus aureus ATCC25923 [4]: 230 ± 0.13 µg/mL (≈ 870 µM) | MIC [4]: 230 µg/mL (≈ 870 µM) | MIC [5]: 930 ± 0.27 µg/mL (≈ 3520 µM) | melting point: 117 to 119 °C | Cell viability on NCTC cells (%) ([6]; 6.25 µg/mL, 48h): 109.13±3.80% | IC50 [6]: 46.4 ± 1.33 µg/mL (≈ 176 µM) | viability at 24 h, 3.1 µg/mL ([7]; NCTC clone 929 (L929) mouse fibroblast cells, 3.1 µg/mL): 99.6 ± 1.38% | viability at 24 h, 6.25 µg/mL [7, 16]: 99.3 ± 2.2% | viability at 48 h, 6.25 µg/mL [7, 17]: 111% | viability at 24 h, 12.5 µg/mL [7, 16]: 99 ± 2.51% | viability at 48 h, 12.5 µg/mL [7, 17]: 101 ± 1.48% | viability at 24 h, 25 µg/mL [7, 16]: 90.2 ± 1.71% | viability at 48 h, 25 µg/mL [7, 17]: 73.5 ± 2.96% | viability at 24 h, 50 µg/mL [7, 16]: 62.7 ± 1.88% | viability at 48 h, 50 µg/mL [7, 17]: 47.5 ± 1.31% | minimal effective concentration [8]: 930 ± 0.27 µg/mL | minimal effective concentration [9]: 930 ± 0.05 µg/mL | Minimum biofilm inhibition concentration (MBIC), Staphylococcus aureus ATCC25923 [10]: 230 ± 0.11 µg/mL | minimal effective concentration [10]: 230 µg/mL | minimal effective concentration [11]: 930 ± 0.28 µg/mL | Qualitative antimicrobial activity, Enterococcus faecalis ATCC29212 [12]: - | Qualitative antimicrobial activity, Escherichia coli ATCC25922 [13]: + | Qualitative antimicrobial activity, Staphylococcus aureus ATCC25923 [14]: + | Qualitative antimicrobial activity, Pseudomonas aeruginosa ATCC27853 [15]: +

Cc1nn(CN(Cn2nc(C)c([N+](=O)[O-])c2C)c2cccc(Cl)c2)c(C)c1[N+](=O)[O-] [5e, N,N-bis-[(3,5-dimetyl-4-nitro-1H-pyrazol-1-yl)-methyl]-3-chloroaniline]
viability at 3.1 µg/mL ([1]; HEp-2, 24 h): 103.7 ± 0.73% | viability at 6.25 µg/mL ([1]; HEp-2, 24 h): 102.4 ± 0.28% | viability at 12.5 µg/mL ([1]; HEp-2, 24 h): 82.29 ± 0.32% | viability at 25 µg/mL ([1]; HEp-2, 24 h): 70.5 ± 0.88% | viability at 50 µg/mL ([1]; HEp-2, 24 h): 59.94 ± 0.42% | viability at 3.1 µg/mL ([1]; HEp-2, 48 h): 102.5 ± 0.48% | viability at 6.25 µg/mL ([1]; HEp-2, 48 h): 96.06 ± 0.34% | viability at 12.5 µg/mL ([1]; HEp-2, 48 h): 77.4 ± 0.63% | viability at 25 µg/mL ([1]; HEp-2, 48 h): 60.3 ± 0.67% | viability at 50 µg/mL ([1]; HEp-2, 48 h): 37.7 ± 0.46% | IC50 ([1]; HEp-2, 48 h): 31.7 ± 0.48 µg/mL (≈ 73.1 µM) | MIC [2]: 1870 ± 0.09 µg/mL (≈ 4310 µM) | MIC [3]: 1870 ± 0.08 µg/mL (≈ 4310 µM) | MIC [4]: 930 ± 0.04 µg/mL (≈ 2140 µM) | MIC [5]: 1870 ± 0.04 µg/mL (≈ 4310 µM) | melting point: 154 to 155 °C | IC50 [6]: 20.3 ± 0.45 µg/mL (≈ 46.8 µM) | viability at 24 h, 3.1 µg/mL ([7]; 3.1 µg/mL, read-out: Cell viability on NCTC cells (%)): 101.9 ± 0.73% | viability at 48 h, 3.1 µg/mL ([7]; 3.1 µg/mL, 48h, read-out: Cell viability on NCTC cells (%)): 95.71 ± 0.5% | viability at 24 h, 6.25 µg/mL [7, 18]: 98.57 ± 0.27% | viability at 48 h, 6.25 µg/mL [7, 19]: 89.47 ± 0.34% | viability at 24 h, 12.5 µg/mL [7, 18]: 88.26 ± 0.32% | viability at 48 h, 12.5 µg/mL [7, 19]: 69.25 ± 0.3% | viability at 24 h, 25 µg/mL [7, 18]: 77.7 ± 0.88% | viability at 48 h, 25 µg/mL [7, 19]: 40.3 ± 0.68% | viability at 24 h, 50 µg/mL [7, 18]: 65.79 ± 0.42% | viability at 48 h, 50 µg/mL [7, 19]: 26.4 ± 0.46% | minimal effective concentration [8]: 930 ± 0.15 µg/mL | minimal effective concentration [9]: 930 ± 0.15 µg/mL | minimal effective concentration [10]: 930 ± 0.15 µg/mL | minimal effective concentration [11]: 930 ± 0.15 µg/mL | Qualitative antimicrobial activity, Enterococcus faecalis ATCC29212 [12]: - | Qualitative antimicrobial activity, Escherichia coli ATCC25922 [13]: - | Qualitative antimicrobial activity, Staphylococcus aureus ATCC25923 [14]: - | Qualitative antimicrobial activity, Pseudomonas aeruginosa ATCC27853 [15]: -
